Source: ChEMBL document CHEMBL4507277

How the values were obtained:
[1] = biological target: Serine/threonine-protein kinase SBK1 (Homo sapiens) (UniProt Q52WX2); details: Compound concentration 1000.0 nM
[2] = biological target: Calcium/calmodulin-dependent protein kinase kinase 1 (Homo sapiens) (UniProt Q8N5S9); details: Compound concentration 1000.0 nM
[3] = biological target: RAC-gamma serine/threonine-protein kinase (Homo sapiens) (UniProt Q9Y243); details: Compound concentration 1000.0 nM
[4] = biological target: Casein kinase I isoform epsilon (Homo sapiens) (UniProt P49674); details: Compound concentration 1000.0 nM
[5] = biological target: Epithelial discoidin domain-containing receptor 1 (Homo sapiens) (UniProt Q08345); details: Compound concentration 1000.0 nM
[6] = biological target: Testis-specific serine/threonine-protein kinase 1 (Homo sapiens) (UniProt Q9BXA7); details: Compound concentration 1000.0 nM
[7] = tested on: Hepatocyte growth factor receptor (Homo sapiens), P08581 [Y1235D]; details: Compound concentration 1000.0 nM
[8] = biological target: Activin receptor type-2B (Homo sapiens) (UniProt Q13705); details: Compound concentration 1000.0 nM
[9] = tested on: Tyrosine-protein kinase ABL1 (Homo sapiens), P00519 [H396P]; details: Compound concentration 1000.0 nM
[10] = biological target: Serine/threonine-protein kinase PAK 1 (Homo sapiens) (UniProt Q13153); details: Compound concentration 1000.0 nM
[11] = biological target: Dual serine/threonine and tyrosine protein kinase (Homo sapiens) (UniProt Q6XUX3); details: Compound concentration 1000.0 nM
[12] = biological target: Casein kinase I isoform alpha-like (Homo sapiens) (UniProt Q8N752); details: Compound concentration 1000.0 nM
[13] = biological target: SRSF protein kinase 1 (Homo sapiens) (UniProt Q96SB4); details: Compound concentration 1000.0 nM
[14] = biological target: Non-receptor tyrosine-protein kinase TYK2 (Homo sapiens) (UniProt P29597); details: Compound concentration 1000.0 nM
[15] = biological target: Beta-3 adrenergic receptor (Homo sapiens) (UniProt P13945); details: Compound concentration 10.0 uM
[16] = biological target: Dual specificity mitogen-activated protein kinase kinase 5 (Homo sapiens) (UniProt Q13163); details: Compound concentration 1000.0 nM
[17] = biological target: Serine/threonine-protein kinase LATS2 (Homo sapiens) (UniProt Q9NRM7); details: Compound concentration 1000.0 nM
[18] = biological target: Serine/threonine-protein kinase D2 (Homo sapiens) (UniProt Q9BZL6); details: Compound concentration 1000.0 nM
[19] = biological target: Serine/threonine-protein kinase 17A (Homo sapiens) (UniProt Q9UEE5); details: Compound concentration 1000.0 nM
[20] = biological target: Serine/threonine-protein kinase MAK (Homo sapiens) (UniProt P20794); details: Compound concentration 1000.0 nM
[21] = biological target: Mitogen-activated protein kinase kinase kinase 6 (Homo sapiens) (UniProt O95382); details: Compound concentration 1000.0 nM
[22] = biological target: Dual specificity mitogen-activated protein kinase kinase 6 (Homo sapiens) (UniProt P52564); details: Compound concentration 1000.0 nM
[23] = tested on: Mast/stem cell growth factor receptor Kit (Homo sapiens), P10721 [V559D,T670I]; details: Compound concentration 1000.0 nM
[24] = biological target: Tyrosine-protein kinase BTK (Homo sapiens) (UniProt Q06187); details: Compound concentration 1000.0 nM
[25] = biological target: Sodium-dependent dopamine transporter (Homo sapiens) (UniProt Q01959); details: Compound concentration 10.0 uM
[26] = biological target: MAP kinase-interacting serine/threonine-protein kinase 2 (Homo sapiens) (UniProt Q9HBH9); details: Compound concentration 1000.0 nM
[27] = biological target: Serine/threonine-protein kinase DCLK2 (Homo sapiens) (UniProt Q8N568); details: Compound concentration 1000.0 nM
[28] = tested on: Phosphatidylinositol 4,5-bisphosphate 3-kinase catalytic subunit alpha isoform (Homo sapiens), P42336 [H1047L]; details: Compound concentration 1000.0 nM
[29] = biological target: Cyclin-dependent kinase 11A (Homo sapiens) (UniProt Q9UQ88); details: Compound concentration 1000.0 nM
[30] = biological target: Mitogen-activated protein kinase 11 (Homo sapiens) (UniProt Q15759); details: Compound concentration 1000.0 nM
[31] = biological target: Calcium/calmodulin-dependent protein kinase type II subunit alpha (Homo sapiens) (UniProt Q9UQM7); details: Compound concentration 1000.0 nM
[32] = biological target: Ribosomal protein S6 kinase alpha-1 (Homo sapiens) (UniProt Q15418); details: Compound concentration 1000.0 nM
[33] = biological target: Activin receptor type-1B (Homo sapiens) (UniProt P36896); details: Compound concentration 1000.0 nM
[34] = biological target: Mitogen-activated protein kinase kinase kinase 10 (Homo sapiens) (UniProt Q02779); details: Compound concentration 1000.0 nM
[35] = biological target: Serine/threonine-protein kinase Nek4 (Homo sapiens) (UniProt P51957); details: Compound concentration 1000.0 nM
[36] = biological target: Histamine H1 receptor (Homo sapiens) (UniProt P35367); details: Compound concentration 10.0 uM
[37] = biological target: Proto-oncogene tyrosine-protein kinase ROS (Homo sapiens) (UniProt P08922); details: Compound concentration 1000.0 nM
[38] = biological target: Dual specificity protein kinase CLK3 (Homo sapiens) (UniProt P49761); details: Compound concentration 1000.0 nM
[39] = biological target: Protein kinase C theta type (Homo sapiens) (UniProt Q04759); details: Compound concentration 1000.0 nM
[40] = biological target: D(3) dopamine receptor (Homo sapiens) (UniProt P35462); details: Compound concentration 10.0 uM
[41] = biological target: Serine/threonine-protein kinase Chk1 (Homo sapiens) (UniProt O14757); details: Compound concentration 1000.0 nM
[42] = tested on: Tyrosine-protein kinase ABL1 (Homo sapiens), P00519 [Q252H]; details: Compound concentration 1000.0 nM
[43] = tested on: Mast/stem cell growth factor receptor Kit (Homo sapiens), P10721 [A829P]; details: Compound concentration 1000.0 nM
[44] = tested on: Tyrosine-protein kinase ABL1 (Homo sapiens), P00519 [H396P]; details: Compound concentration 1000.0 nM; remark: listed apart in the source
[45] = biological target: Wee1-like protein kinase 2 (Homo sapiens) (UniProt P0C1S8); details: Compound concentration 1000.0 nM

Calcium/calmodulin-dependent protein kinase kinase 1 (Homo sapiens), sequence (Q8N5S9 whole entry, looked up): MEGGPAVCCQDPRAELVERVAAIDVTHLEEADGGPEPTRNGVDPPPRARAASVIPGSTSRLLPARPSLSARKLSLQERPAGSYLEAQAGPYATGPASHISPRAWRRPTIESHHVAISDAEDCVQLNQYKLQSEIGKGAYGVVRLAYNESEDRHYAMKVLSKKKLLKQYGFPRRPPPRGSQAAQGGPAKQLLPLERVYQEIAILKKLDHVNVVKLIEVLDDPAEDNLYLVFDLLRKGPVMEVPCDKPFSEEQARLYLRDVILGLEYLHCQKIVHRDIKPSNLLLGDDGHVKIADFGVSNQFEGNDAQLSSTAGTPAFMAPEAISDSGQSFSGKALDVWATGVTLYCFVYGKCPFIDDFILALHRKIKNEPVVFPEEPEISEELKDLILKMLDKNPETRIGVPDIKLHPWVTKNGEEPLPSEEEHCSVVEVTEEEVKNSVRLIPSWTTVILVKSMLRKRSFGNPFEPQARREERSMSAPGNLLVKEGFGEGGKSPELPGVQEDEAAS
Proto-oncogene tyrosine-protein kinase ROS (Homo sapiens), sequence (P08922 whole entry): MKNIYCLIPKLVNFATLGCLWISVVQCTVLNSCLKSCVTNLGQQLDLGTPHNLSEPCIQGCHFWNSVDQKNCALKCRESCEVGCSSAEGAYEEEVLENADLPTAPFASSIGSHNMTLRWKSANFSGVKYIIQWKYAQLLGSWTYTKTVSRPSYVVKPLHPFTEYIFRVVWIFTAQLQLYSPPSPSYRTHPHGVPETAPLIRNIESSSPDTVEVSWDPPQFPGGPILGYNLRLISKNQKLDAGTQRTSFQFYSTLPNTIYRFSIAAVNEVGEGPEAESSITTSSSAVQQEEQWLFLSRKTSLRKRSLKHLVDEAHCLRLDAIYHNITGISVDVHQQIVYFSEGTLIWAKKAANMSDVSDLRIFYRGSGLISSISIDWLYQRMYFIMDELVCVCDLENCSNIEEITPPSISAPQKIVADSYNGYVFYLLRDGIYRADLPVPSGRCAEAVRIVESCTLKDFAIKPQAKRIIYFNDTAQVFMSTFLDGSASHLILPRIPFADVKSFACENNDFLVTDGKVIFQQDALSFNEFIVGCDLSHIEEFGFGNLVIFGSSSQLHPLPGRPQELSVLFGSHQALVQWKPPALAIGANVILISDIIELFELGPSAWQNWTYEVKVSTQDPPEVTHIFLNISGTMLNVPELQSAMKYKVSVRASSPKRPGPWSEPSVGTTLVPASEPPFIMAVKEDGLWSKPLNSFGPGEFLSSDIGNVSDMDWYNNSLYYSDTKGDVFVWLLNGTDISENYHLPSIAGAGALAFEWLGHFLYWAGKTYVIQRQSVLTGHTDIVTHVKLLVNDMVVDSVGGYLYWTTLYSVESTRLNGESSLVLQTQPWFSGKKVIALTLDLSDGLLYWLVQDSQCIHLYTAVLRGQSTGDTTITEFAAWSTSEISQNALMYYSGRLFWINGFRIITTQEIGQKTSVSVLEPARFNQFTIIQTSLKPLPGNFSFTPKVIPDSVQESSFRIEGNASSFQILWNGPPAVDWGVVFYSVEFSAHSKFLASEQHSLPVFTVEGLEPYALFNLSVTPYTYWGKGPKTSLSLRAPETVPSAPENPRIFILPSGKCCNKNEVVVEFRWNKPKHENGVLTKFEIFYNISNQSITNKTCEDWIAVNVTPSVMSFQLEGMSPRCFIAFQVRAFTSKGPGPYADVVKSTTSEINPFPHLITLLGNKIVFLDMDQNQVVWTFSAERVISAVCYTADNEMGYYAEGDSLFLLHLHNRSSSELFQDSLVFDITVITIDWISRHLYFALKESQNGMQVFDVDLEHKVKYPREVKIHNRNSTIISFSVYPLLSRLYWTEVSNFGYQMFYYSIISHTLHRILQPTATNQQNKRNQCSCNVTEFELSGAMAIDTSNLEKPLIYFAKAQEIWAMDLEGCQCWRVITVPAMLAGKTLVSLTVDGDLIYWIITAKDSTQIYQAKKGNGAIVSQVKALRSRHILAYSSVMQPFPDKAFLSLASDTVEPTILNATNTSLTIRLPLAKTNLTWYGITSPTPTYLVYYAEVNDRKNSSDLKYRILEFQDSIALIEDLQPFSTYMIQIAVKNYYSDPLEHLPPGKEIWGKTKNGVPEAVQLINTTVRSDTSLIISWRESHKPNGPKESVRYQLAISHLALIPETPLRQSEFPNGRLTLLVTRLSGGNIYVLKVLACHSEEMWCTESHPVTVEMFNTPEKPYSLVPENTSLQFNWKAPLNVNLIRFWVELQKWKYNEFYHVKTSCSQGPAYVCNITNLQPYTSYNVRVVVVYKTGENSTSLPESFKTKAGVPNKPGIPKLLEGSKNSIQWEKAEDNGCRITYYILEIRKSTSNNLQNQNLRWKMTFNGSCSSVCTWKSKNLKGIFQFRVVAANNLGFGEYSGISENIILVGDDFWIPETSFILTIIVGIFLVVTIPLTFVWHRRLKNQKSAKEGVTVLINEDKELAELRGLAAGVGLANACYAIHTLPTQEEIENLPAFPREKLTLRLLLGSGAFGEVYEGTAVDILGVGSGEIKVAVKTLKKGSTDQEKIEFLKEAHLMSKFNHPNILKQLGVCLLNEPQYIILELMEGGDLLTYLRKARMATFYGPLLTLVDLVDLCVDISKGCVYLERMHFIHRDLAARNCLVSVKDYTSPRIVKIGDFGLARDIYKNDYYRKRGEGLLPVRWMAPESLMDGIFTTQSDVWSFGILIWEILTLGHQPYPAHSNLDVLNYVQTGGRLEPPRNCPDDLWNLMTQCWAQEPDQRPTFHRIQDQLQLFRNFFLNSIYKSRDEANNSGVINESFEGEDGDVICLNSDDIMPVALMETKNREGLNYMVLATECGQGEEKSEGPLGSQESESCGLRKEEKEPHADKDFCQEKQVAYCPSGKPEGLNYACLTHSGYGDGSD
Beta-3 adrenergic receptor (Homo sapiens), sequence (P13945 whole entry, looked up): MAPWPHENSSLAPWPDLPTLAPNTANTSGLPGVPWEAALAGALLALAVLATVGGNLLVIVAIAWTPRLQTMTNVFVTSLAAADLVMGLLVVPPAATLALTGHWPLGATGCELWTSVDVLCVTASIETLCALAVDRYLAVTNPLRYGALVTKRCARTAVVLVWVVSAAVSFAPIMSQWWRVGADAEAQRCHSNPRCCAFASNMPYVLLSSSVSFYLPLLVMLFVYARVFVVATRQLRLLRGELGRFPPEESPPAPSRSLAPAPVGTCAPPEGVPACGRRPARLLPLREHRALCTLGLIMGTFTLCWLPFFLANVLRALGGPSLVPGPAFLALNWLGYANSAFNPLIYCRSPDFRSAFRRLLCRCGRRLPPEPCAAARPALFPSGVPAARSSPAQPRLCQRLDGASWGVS
RAC-gamma serine/threonine-protein kinase (Homo sapiens), sequence (Q9Y243 whole entry, canonical isoform): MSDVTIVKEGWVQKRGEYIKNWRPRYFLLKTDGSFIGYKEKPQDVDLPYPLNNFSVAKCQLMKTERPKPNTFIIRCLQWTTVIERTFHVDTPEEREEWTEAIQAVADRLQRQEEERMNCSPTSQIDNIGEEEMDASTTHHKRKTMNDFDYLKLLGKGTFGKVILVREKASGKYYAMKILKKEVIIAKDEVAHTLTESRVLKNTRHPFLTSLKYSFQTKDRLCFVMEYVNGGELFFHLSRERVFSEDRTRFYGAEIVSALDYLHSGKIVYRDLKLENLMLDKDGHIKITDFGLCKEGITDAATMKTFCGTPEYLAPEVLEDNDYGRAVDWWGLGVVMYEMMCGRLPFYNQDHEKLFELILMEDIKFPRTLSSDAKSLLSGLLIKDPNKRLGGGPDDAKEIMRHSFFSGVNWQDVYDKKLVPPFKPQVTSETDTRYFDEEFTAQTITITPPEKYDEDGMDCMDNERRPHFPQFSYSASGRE
Mast/stem cell growth factor receptor Kit (Homo sapiens), P10721 [A829P], sequence (P10721 whole entry A829P): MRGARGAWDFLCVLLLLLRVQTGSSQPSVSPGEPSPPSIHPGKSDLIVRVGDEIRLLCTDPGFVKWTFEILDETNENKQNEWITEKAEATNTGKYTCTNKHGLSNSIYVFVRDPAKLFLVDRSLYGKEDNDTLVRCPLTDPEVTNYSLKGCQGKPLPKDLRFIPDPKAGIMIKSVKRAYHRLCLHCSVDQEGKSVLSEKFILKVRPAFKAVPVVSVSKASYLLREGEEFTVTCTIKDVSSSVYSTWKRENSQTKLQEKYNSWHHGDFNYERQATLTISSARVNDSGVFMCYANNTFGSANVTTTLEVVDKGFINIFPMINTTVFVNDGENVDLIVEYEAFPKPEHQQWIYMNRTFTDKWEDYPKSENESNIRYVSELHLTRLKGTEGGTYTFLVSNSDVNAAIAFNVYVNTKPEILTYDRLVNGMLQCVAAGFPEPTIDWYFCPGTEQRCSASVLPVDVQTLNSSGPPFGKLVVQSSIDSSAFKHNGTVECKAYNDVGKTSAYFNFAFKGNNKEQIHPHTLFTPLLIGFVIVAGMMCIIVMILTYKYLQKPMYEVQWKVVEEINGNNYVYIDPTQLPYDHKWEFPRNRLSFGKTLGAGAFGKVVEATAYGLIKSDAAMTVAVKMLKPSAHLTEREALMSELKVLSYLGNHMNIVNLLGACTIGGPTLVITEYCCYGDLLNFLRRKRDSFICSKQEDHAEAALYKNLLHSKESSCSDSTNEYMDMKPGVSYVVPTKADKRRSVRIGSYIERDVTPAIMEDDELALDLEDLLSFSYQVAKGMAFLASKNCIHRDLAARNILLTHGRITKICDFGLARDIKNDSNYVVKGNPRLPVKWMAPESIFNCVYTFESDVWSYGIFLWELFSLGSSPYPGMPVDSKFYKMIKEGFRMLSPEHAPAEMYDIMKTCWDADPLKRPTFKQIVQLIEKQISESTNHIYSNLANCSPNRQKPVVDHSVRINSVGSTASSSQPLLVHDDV
Mitogen-activated protein kinase 11 (Homo sapiens), sequence (Q15759 whole entry): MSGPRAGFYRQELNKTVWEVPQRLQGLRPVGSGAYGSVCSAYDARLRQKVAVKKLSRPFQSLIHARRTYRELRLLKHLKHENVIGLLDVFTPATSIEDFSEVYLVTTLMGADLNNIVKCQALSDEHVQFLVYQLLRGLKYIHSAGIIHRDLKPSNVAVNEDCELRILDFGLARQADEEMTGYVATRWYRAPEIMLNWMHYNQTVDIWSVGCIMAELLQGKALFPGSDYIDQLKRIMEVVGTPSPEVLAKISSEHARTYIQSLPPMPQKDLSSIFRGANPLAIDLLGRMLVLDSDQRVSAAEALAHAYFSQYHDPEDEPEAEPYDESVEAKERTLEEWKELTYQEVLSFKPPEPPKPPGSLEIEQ

CCS(=O)(=O)c1cc2cc(C[C@@](O)(CC(C)(C)c3ccc(F)cc3C(N)=O)C(F)(F)F)[nH]c2cn1
inactive: residual activity [1] 94% | residual activity [2] 87% | residual activity [3] 90% | residual activity [4] 97% | residual activity [5] 100% | residual activity [6] 96% | residual activity [7] 100% | residual activity [8] 100% | residual activity [9] 99% | residual activity [10] 100% | residual activity [11] 100% | residual activity [12] 99% | residual activity [13] 90% | residual activity [14] 82% | inhibition [15] 0.63% | residual activity [16] 81% | residual activity [17] 100% | residual activity [18] 89% | residual activity [19] 80% | residual activity [20] 100% | residual activity [21] 100% | residual activity [22] 84% | residual activity [23] 100% | residual activity [24] 100% | inhibition [25] 2.58% | residual activity [26] 87% | residual activity [27] 100% | residual activity [28] 97% | residual activity [29] 100% | residual activity [30] 100% | residual activity [31] 100% | residual activity [32] 100% | residual activity [33] 100% | residual activity [34] 65% | residual activity [35] 91% | inhibition [36] 6.19% | residual activity [37] 90% | residual activity [38] 100% | residual activity [39] 97% | inhibition [40] 1.8% | residual activity [41] 100% | residual activity [42] 92% | residual activity [43] 73% | residual activity [44] 99% | residual activity [45] 95%

CCS(=O)(=O)c1cc2cc(C[C@](O)(CC(C)(C)c3ccc(F)cc3C(N)=O)C(F)(F)F)[nH]c2cn1
active: residual activity [17] 40%
inactive: residual activity [1] 87% | residual activity [2] 100% | residual activity [3] 100% | residual activity [4] 95% | residual activity [5] 94% | residual activity [6] 94% | residual activity [7] 100% | residual activity [8] 98% | residual activity [9] 100% | residual activity [10] 95% | residual activity [11] 86% | residual activity [12] 100% | residual activity [13] 83% | residual activity [14] 100% | inhibition [15] 13% | residual activity [16] 100% | residual activity [18] 96% | residual activity [19] 80% | residual activity [20] 100% | residual activity [21] 55% | residual activity [22] 80% | residual activity [23] 100% | residual activity [24] 100% | inhibition [25] -8.67% | residual activity [26] 100% | residual activity [27] 100% | residual activity [28] 96% | residual activity [29] 100% | residual activity [30] 100% | residual activity [31] 94% | residual activity [32] 100% | residual activity [33] 100% | residual activity [34] 100% | residual activity [35] 85% | inhibition [36] 4.27% | residual activity [37] 100% | residual activity [38] 100% | residual activity [39] 87% | inhibition [40] 7.81% | residual activity [41] 97% | residual activity [42] 100% | residual activity [43] 89% | residual activity [44] 89% | residual activity [45] 100%
